Results as given in ChEMBL document CHEMBL5291721, “A preclinical secondary pharmacology resource illuminates target-adverse drug reaction associations of marketed drugs” (Nat Commun, 2023).

How the values were obtained:
[1] = molecular target: Sodium-dependent serotonin transporter (Homo sapiens, UniProt P31645)
[2] = molecular target: T1, Muscarinic acetylcholine receptor M2 (Homo sapiens, UniProt P08172)
T1 sequence (P08172 whole entry): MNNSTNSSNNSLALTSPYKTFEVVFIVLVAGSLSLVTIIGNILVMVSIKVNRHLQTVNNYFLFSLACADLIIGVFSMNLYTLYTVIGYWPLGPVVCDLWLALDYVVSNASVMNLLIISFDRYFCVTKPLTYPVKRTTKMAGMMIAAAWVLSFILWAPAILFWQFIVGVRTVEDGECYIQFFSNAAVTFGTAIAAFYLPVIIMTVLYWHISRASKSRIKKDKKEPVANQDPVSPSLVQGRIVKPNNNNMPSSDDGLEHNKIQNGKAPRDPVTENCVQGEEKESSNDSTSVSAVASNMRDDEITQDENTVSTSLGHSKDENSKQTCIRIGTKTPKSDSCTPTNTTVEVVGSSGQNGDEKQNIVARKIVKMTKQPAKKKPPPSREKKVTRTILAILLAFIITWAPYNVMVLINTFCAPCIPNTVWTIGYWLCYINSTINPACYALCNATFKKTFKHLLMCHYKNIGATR

[3] = molecular target: T2, Alpha-2A adrenergic receptor (Homo sapiens, UniProt P08913)
T2 sequence (P08913 whole entry): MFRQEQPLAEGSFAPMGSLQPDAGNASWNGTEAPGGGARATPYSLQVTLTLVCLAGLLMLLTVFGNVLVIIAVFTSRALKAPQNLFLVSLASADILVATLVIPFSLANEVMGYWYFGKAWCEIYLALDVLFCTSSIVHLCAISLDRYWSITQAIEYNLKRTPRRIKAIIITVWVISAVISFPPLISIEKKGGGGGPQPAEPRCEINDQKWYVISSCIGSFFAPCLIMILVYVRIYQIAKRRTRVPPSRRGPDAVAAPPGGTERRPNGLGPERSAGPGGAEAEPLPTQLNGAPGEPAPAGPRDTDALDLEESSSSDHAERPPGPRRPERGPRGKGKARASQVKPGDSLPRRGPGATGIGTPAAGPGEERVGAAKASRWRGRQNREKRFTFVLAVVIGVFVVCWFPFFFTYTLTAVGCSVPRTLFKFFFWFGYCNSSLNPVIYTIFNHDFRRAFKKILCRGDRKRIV

[4] = molecular target: Vascular endothelial growth factor receptor 2 (Homo sapiens, UniProt P35968); format: functional
Chain of Vascular endothelial growth factor receptor 2 (P35968 whole entry): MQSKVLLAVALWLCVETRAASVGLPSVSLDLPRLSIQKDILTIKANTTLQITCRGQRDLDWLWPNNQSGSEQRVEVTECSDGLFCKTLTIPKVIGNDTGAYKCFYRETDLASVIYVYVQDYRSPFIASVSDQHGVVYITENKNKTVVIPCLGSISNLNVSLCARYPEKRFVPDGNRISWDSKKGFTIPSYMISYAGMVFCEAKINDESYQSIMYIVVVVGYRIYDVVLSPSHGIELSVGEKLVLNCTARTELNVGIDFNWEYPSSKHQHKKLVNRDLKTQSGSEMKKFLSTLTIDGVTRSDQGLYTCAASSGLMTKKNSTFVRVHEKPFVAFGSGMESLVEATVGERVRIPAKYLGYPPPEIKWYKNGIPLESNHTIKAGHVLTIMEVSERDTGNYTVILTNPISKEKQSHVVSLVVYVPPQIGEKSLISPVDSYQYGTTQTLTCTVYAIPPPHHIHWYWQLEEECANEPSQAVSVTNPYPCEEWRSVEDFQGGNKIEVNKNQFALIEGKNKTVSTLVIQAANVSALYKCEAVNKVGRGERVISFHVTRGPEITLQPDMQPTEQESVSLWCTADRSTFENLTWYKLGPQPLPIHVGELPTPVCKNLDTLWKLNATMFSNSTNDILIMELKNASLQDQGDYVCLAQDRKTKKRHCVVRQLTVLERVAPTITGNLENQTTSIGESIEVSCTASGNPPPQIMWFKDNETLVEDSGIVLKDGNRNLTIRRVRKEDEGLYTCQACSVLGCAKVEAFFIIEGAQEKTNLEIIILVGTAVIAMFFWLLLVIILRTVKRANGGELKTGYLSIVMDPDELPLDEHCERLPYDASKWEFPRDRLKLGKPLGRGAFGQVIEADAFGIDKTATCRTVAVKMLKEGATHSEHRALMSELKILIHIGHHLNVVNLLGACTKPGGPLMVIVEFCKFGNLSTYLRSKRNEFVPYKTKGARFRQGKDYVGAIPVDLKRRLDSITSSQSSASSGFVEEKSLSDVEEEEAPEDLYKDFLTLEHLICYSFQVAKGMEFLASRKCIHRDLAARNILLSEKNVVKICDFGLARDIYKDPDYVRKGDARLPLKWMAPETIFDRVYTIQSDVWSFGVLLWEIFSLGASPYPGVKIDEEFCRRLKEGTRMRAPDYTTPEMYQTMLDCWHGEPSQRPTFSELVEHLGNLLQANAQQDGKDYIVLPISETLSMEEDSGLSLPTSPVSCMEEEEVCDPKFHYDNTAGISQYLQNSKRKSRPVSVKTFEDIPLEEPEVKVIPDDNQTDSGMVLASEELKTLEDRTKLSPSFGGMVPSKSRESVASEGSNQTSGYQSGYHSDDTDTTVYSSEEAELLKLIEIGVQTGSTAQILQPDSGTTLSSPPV

Thromboxane A2 receptor = molecular target: T3, Thromboxane A2 receptor (Homo sapiens, UniProt P21731); format: functional, cell-based
T3 sequence (P21731 whole entry): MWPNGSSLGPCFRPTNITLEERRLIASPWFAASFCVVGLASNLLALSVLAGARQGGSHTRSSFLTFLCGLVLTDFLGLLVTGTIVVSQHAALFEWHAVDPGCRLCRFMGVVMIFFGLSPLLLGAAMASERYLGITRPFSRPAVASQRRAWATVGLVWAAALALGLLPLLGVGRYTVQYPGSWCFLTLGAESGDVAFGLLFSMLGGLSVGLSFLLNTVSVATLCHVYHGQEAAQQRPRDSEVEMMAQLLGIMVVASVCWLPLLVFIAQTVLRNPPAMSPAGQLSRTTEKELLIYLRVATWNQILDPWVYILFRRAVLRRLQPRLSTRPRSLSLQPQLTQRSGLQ

[5] = molecular target: T4, 5-hydroxytryptamine receptor 1A (Homo sapiens, UniProt P08908)
T4 sequence (P08908 whole entry): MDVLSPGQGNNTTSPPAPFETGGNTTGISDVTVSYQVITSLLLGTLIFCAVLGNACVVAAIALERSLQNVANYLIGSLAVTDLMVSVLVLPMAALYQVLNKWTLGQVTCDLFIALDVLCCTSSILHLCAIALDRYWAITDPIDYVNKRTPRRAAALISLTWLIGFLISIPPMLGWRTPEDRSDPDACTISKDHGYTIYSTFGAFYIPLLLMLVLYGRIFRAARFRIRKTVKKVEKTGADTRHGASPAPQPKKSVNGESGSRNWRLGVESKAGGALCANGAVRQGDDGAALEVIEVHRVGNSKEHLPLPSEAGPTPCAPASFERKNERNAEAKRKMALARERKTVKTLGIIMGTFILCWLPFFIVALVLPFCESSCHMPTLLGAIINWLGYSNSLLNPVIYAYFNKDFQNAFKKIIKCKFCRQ

[6] = molecular target: Sodium-dependent noradrenaline transporter (Homo sapiens, UniProt P23975)
Chain of Sodium-dependent noradrenaline transporter (P23975 whole entry): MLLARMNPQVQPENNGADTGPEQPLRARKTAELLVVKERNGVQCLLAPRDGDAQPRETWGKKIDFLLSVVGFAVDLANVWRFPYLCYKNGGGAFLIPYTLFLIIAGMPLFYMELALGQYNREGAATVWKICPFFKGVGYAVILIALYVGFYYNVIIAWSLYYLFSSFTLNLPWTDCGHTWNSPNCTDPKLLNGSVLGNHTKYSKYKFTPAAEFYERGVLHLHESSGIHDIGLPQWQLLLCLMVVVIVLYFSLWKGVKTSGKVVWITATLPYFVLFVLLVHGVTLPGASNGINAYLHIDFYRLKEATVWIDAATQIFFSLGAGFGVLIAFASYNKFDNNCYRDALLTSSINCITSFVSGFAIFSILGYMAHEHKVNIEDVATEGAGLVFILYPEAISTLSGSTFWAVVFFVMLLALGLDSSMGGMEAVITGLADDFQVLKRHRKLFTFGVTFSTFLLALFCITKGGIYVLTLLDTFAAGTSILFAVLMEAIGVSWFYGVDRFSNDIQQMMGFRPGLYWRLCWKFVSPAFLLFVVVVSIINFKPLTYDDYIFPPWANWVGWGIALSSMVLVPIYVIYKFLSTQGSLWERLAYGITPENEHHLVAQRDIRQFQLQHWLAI

[7] = molecular target: 5-hydroxytryptamine receptor 2B (Homo sapiens, UniProt P41595); format: functional, cell-based
Chain of 5-hydroxytryptamine receptor 2B (P41595 whole entry): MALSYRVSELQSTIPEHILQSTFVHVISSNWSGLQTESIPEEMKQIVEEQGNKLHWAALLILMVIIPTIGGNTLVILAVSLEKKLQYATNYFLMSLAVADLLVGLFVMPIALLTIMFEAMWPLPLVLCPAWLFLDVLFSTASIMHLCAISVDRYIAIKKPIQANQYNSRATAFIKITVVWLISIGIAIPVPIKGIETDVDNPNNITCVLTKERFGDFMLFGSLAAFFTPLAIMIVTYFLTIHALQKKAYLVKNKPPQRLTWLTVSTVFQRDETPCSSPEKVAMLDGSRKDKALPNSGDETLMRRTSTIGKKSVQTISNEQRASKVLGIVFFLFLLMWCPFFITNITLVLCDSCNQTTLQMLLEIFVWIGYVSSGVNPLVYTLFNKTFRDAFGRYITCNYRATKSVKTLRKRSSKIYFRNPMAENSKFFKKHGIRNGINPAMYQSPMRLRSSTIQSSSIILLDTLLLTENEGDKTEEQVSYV

Histamine H3 receptor = Histamine H3 receptor (Homo sapiens, UniProt Q9Y5N1)
Chain of Histamine H3 receptor (Q9Y5N1 whole entry): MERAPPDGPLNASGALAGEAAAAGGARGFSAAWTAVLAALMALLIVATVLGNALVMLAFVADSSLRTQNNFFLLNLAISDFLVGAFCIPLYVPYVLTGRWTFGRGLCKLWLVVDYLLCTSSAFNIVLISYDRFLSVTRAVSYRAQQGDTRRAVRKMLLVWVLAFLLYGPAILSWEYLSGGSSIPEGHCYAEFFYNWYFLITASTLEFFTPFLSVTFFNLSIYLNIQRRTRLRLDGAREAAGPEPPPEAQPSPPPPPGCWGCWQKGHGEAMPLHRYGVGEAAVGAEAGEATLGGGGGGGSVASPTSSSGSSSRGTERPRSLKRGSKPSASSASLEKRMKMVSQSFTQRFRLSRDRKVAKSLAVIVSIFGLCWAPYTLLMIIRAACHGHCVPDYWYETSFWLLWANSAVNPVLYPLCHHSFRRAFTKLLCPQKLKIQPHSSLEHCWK
Note: assay procedure not described here.

Chain of Sodium-dependent serotonin transporter (P31645 whole entry): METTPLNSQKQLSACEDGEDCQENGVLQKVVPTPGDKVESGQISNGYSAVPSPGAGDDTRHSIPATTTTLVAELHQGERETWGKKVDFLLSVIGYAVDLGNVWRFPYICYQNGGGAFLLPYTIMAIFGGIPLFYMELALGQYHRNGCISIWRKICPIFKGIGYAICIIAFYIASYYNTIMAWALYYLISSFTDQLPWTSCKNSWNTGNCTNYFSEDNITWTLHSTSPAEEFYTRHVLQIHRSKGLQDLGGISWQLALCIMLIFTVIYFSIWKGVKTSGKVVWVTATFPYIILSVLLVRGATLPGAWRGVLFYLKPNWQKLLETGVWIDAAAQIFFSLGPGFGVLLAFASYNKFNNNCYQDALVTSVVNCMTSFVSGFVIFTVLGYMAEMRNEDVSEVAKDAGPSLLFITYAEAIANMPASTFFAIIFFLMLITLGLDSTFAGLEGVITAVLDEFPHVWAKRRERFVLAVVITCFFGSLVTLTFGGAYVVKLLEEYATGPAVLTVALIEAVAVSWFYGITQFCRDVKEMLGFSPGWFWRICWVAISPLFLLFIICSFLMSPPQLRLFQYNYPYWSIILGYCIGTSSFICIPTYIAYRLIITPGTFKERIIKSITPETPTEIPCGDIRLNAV

Row | SMILES | AC50 [1] | AC50 [2] | AC50 [3] | AC50 [4] | AC50 (Thromboxane A2 receptor) | AC50 [5] | AC50 [6] | AC50 [7] | AC50 (Histamine H3 receptor)
1 | Cc1ccsc1C(=CCCN1CCC[C@@H](C(=O)O)C1)c1sccc1C [TIAGABINE] | > 30 µM | > 30 µM | > 30 µM | > 30 µM | > 30 µM | > 30 µM | > 30 µM | > 30 µM | > 30 µM
2 | Cc1ccccc1C(=O)Nc1ccc(C(=O)N2CCCC(O)c3cc(Cl)ccc32)c(C)c1 (configuration not stated) [TOLVAPTAN] | > 30 µM | > 30 µM | > 30 µM | > 30 µM | 7.42 µM | 11 µM | > 30 µM | > 30 µM | > 30 µM
3 | CC[C@]12CCCN3CCc4c(n(c5ccccc45)[C@@](O)(C(=O)OC)C1)[C@@H]32 [VINCAMINE] | > 30 µM | > 30 µM | > 30 µM | > 30 µM | > 30 µM | > 30 µM | > 30 µM | > 30 µM | > 30 µM
